This is an account of results in patent US20210395313A1, “PEPTIDE PAC1 ANTAGONISTS” (AMGEN INC., priority 2017, published 2021).

One test deals with T1, human PAC1 receptor (Homo sapiens, UniProt P41586).
T1 construct: SHSY-5Y (human neuroblastoma cell line) and RG-2 (rat glioma cell line) cells endogenously express human and rat PAC1 receptors, respectively; endogenous in cells; host or cells: SHSY-5Y human neuroblastoma cells
T1 sequence (P41586 21-468): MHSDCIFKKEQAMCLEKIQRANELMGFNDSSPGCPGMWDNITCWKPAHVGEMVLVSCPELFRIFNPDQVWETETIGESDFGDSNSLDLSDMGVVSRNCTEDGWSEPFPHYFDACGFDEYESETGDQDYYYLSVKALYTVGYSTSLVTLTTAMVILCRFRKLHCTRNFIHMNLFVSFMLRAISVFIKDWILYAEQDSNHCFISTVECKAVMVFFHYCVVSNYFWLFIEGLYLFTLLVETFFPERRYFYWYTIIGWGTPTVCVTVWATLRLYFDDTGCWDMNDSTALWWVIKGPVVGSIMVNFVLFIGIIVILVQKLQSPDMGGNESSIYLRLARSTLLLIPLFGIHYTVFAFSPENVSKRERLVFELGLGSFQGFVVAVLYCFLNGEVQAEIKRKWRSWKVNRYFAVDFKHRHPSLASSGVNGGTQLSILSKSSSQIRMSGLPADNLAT
In words: LANCE Ultra cAMP accumulation antagonist assay in SHSY-5Y cells.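 Also: inhibition of cAMP accumulation evoked by PAC1 agonist at its EC80 in SHSY-5Y cells endogenously expressing receptor, 30 min preincubation then 15 min agonist, TR-FRET readout.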 Type of test: cell-based. (TR-FRET usually uses a lanthanide donor and a delayed reading to cut background.)

The target of a further test is T2, rat PAC1 receptor (Rattus norvegicus, UniProt P32215).
T2 construct: SHSY-5Y (human neuroblastoma cell line) and RG-2 (rat glioma cell line) cells endogenously express human and rat PAC1 receptors, respectively; endogenous in cells; host or cells: RG-2 rat glioma cells
T2 sequence (P32215 20-523): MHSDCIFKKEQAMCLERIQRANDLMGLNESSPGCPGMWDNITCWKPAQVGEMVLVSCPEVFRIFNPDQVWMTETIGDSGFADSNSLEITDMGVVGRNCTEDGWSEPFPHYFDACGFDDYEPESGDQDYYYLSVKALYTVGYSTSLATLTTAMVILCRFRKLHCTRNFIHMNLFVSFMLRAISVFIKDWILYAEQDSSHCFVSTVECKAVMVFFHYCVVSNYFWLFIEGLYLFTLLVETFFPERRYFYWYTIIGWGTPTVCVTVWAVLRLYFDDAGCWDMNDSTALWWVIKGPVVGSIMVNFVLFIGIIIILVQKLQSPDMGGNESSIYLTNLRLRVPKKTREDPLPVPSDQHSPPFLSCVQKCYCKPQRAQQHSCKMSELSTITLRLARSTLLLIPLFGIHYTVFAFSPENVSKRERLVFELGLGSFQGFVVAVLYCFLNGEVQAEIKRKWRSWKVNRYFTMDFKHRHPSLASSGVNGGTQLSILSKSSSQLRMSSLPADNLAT
In words: LANCE Ultra cAMP accumulation antagonist assay in RG-2 cells.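 Also: RG-2 rat glioma cells endogenously expressing PAC1, test peptide preincubated 30 min, then PAC1 agonist added at its EC80 for 15 min, cAMP accumulation read by LANCE Ultra.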 Type of test: cell-based.

Bridges are numbered along the chain shown (N, C = ends). Where no end group is shown, it is not given here.

As to “CDATCQFRKAIDDCDKQAHHSNVPGSVFKACMKQKKKEFQAG-NH2 (disulfide 1-5, 14-31) [compound 169]”, the IC50 against human PAC1 receptor and against rat PAC1 receptor was 0.01 to 1 nM throughout.
As to “CDATCQFRKAIDDCDRQAHHSNVPGSVFKACMKQKKKEFKAG-NH2 (disulfide 1-5, 14-31) [compound 168]”, the IC50 against human PAC1 receptor and on rat PAC1 receptor was 0.01 to 1 nM throughout.
As for “CDATCQFRKAIDDCDRQAHHSNVPGSVFKACMKQKKKEFKAGH (disulfide 1-5, 14-31) [compound 155]”, the figures for the IC50 on human PAC1 receptor and on rat PAC1 receptor were 1 to 100 nM and 0.01 to 1 nM, respectively.
With “CDATCQFRKAIDDCDRQAHHSNVPGSVFKACMKQKKKEWKAG (disulfide 1-5, 14-31) [compound 81]”, the IC50 (usually the concentration at which inhibition is half-maximal) was 1 to 100 nM on human PAC1 receptor and 0.01 to 1 nM on rat PAC1 receptor.
For “CDATCQFRKAIDDCDRQAHHSNVPGSVFKACMKQKKKEWKAGH (disulfide 1-5, 14-31) [compound 167]”, in that order: 0.01 to 1 nM and 0.01 to 1 nM.
Turning to “CDATCQFRKAIDDCDRQAHHSNVPGSVFKACMKQKKKEWKAN (disulfide 1-5, 14-31) [compound 159]”, the IC50 on human PAC1 receptor is 1 to 100 nM; at rat PAC1 receptor, 0.01 to 1 nM.
The corresponding values for “CDATCQFRKAIDDCDRQAHHSNVPGSVFKACMKQKKKEWKAN-NH2 (disulfide 1-5, 14-31) [compound 158]” are 0.01 to 1 nM and 0.01 to 1 nM.
For the substance “CDATCQFRKAIDDCDRQAHHSNVPGSVFKACMKQKKKEWKANN (disulfide 1-5, 14-31) [compound 154]”, the IC50 at human PAC1 receptor and against rat PAC1 receptor was 0.01 to 1 nM each time.
“CDATCQFRKAIDDCDRQAYHSNVPGSVFKACMKQKKKEWKAG-NH2 (disulfide 1-5, 14-31) [compound 144]”: the IC50 at human PAC1 receptor and on rat PAC1 receptor was 0.01 to 1 nM in each case.
As for “CDATCQFRKAIDDCFTWAWHSNVPGSVFKACMKQKKKEFKAG-NH2 (disulfide 1-5, 14-31) [compound 74]”, the IC50 at human PAC1 receptor and against rat PAC1 receptor was 0.01 to 1 nM each time.
“CDATCQFRKAIDDCFTWSWHSNVPGSVFKACMKQKKKEFKAG-NH2 (disulfide 1-5, 14-31) [compound 135]”: the IC50 against human PAC1 receptor and against rat PAC1 receptor was 0.01 to 1 nM throughout.
As to “CDATCQFRKAIDDCFWLASHSNVPGSVWKACMKQKKKEFKAG-NH2 (disulfide 1-5, 14-31) [compound 119]”, the IC50 on human PAC1 receptor and on rat PAC1 receptor was 0.01 to 1 nM each time.
Regarding “CDATCQFRKAIDDCFYQAWHSNVPGSVWKACMKFRFNVWKAG-NH2 (disulfide 1-5, 14-31) [compound 55]”, the IC50 lay in the range of 1 to 100 nM on human PAC1 receptor and 0.01 to 1 nM at rat PAC1 receptor.
The corresponding values for “CDATCQFRKAIDDCFYQAWHSNVPGSVWKACMKQKKKEFKAG-NH2 (disulfide 1-5, 14-31) [compound 139]” are 0.01 to 1 nM and 0.01 to 1 nM.
For “CDATCQFRKAIDDCHLLAWHANVPGSVFKACMKQKKKEFKAG-NH2 (disulfide 1-5, 14-31) [compound 140]”, in that order: 0.01 to 1 nM and 0.01 to 1 nM.
For “CDATCQFRKAIDDCHLLAWHSNVPGSVFKACMKQKKKEFKAG-NH2 (disulfide 1-5, 14-31) [compound 76]”, in that order: 0.01 to 1 nM and 0.01 to 1 nM.
For the substance “CDATCQFRKAIDDCIFWAAHSNVPGSVFKACMKQKKKEFKAG-NH2 (disulfide 1-5, 14-31) [compound 123]”, the IC50 against human PAC1 receptor and against rat PAC1 receptor was 0.01 to 1 nM in each case.
On to “CDATCQFRKAIDDCLWWSQHSNVPGSVFKACMKQKKKEFKAG-NH2 (disulfide 1-5, 14-31) [compound 117]”, for which the IC50 against human PAC1 receptor and against rat PAC1 receptor was 0.01 to 1 nM throughout.
In the case of “CDATCQFRKAIDDCLWYARHSNVPGSVFKACMKQKKKEFKAG-NH2 (disulfide 1-5, 14-31) [compound 120]”, the IC50 against human PAC1 receptor and on rat PAC1 receptor was 0.01 to 1 nM each time.
For the substance “CDATCQFRKAIDDCMLFSWHSNVPGSVFKACMKQKKKEFKAG-NH2 (disulfide 1-5, 14-31) [compound 131]”, the IC50 at human PAC1 receptor and against rat PAC1 receptor was 0.01 to 1 nM each time.
For “CDATCQFRKAIDDCMLLSWHSNVPGSVFKACMKQKKKEFKAG-NH2 (disulfide 1-5, 14-31) [compound 132]”, the IC50 at human PAC1 receptor was 0.01 to 1 nM; at rat PAC1 receptor, below 0.01 nM.
The corresponding values for “CDATCQFRKAIDDCMWFAWHSNVPGSVFKACMKQKKKEFKAG-NH2 (disulfide 1-5, 14-31) [compound 122]” are 0.01 to 1 nM and 0.01 to 1 nM.
The corresponding values for “CDATCQFRKAIDDCMWYSRHSNVPGSVFKACMKQKKKEFKAG-NH2 (disulfide 1-5, 14-31) [compound 121]” are 0.01 to 1 nM and 0.01 to 1 nM.
The corresponding values for “CDATCQFRKAIDDCQKQAHHSNVPGSVFKACLKQKKKEFKAG-NH2 (disulfide 1-5, 14-31) [compound 143]” are 0.01 to 1 nM and 0.01 to 1 nM.
As for “CDATCQFRKAIDDCQKQAHHSNVPGSVFKACLLQKKKEFKAG-NH2 (disulfide 1-5, 14-31) [compound 100]”, the IC50 at human PAC1 receptor and against rat PAC1 receptor was 1 to 100 nM throughout.
In the case of “CDATCQFRKAIDDCQKQAHHSNVPGSVFKACLVQKKKEFKAG-NH2 (disulfide 1-5, 14-31) [compound 101]”, the half-maximal inhibitory concentration (IC50) against human PAC1 receptor and at rat PAC1 receptor was 1 to 100 nM in each case.
As for “CDATCQFRKAIDDCQKQAHHSNVPGSVFKACMKFRFNVWKAG-NH2 (disulfide 1-5, 14-31) [compound 127]”, the IC50 at human PAC1 receptor and at rat PAC1 receptor was 0.01 to 1 nM in each case.
As for “CDATCQFRKAIDDCQKQAHHSNVPGSVFKACMKFRRFLWKAG-NH2 (disulfide 1-5, 14-31) [compound 128]”, the IC50 on human PAC1 receptor and against rat PAC1 receptor was 0.01 to 1 nM throughout.
Consider “CDATCQFRKAIDDCQKQAHHSNVPGSVFKACMKFRRTLWKAG-NH2 (disulfide 1-5, 14-31) [compound 89]”, for which the IC50 at human PAC1 receptor lay within 1 to 100 nM; at rat PAC1 receptor, 0.01 to 1 nM.
For “CDATCQFRKAIDDCQKQAHHSNVPGSVFKACMKQKKKEFKA-NH2 (disulfide 1-5, 14-31) [compound 214]”, in that order: 1 to 100 nM and 0.01 to 1 nM.
As to “CDATCQFRKAIDDCQKQAHHSNVPGSVFKACMKQKKKEFKAGHHHHHH (disulfide 1-5, 14-31) [compound 160]”, the IC50 at human PAC1 receptor lay in the range of 1 to 100 nM; against rat PAC1 receptor it was 0.01 to 1 nM.
With “CDATCQFRKAIDDCQKQAHHSNVPGSVFKACMKQKKKEFKAGQ (disulfide 1-5, 14-31) [compound 174]”, the results for the IC50 against human PAC1 receptor and against rat PAC1 receptor were 1 to 100 nM and 0.01 to 1 nM, respectively.
For “CDATCQFRKAIDDCQKQAHHSNVPGSVFKACMKQKKKEFKAGW (disulfide 1-5, 14-31) [compound 145]”, in that order: 0.01 to 1 nM and 0.01 to 1 nM.
The corresponding values for “CDATCQFRKAIDDCQKQAHHSNVPGSVFKACMKQKKKEFKAH (disulfide 1-5, 14-31) [compound 153]” are 1 to 100 nM and 0.01 to 1 nM.
For “CDATCQFRKAIDDCQKQAHHSNVPGSVFKACMKQKKKEFKAQ (disulfide 1-5, 14-31) [compound 96]”, in that order: 1 to 100 nM and 0.01 to 1 nM.
On to “CDATCQFRKAIDDCQKQAHHSNVPGSVFKACMKQKKKEFKAR (disulfide 1-5, 14-31) [compound 68]”, for which the IC50 against human PAC1 receptor and at rat PAC1 receptor was 0.01 to 1 nM in each case.
Turning to “CDATCQFRKAIDDCQKQAHHSNVPGSVFKACMKQKKKEFKAW (disulfide 1-5, 14-31) [compound 95]”, the IC50 at human PAC1 receptor and against rat PAC1 receptor was 1 to 100 nM in each case.
As for “CDATCQFRKAIDDCQKQAHHSNVPGSVFKACMKQRKKRWLAG-NH2 (disulfide 1-5, 14-31) [compound 126]”, the IC50 against human PAC1 receptor and against rat PAC1 receptor was 0.01 to 1 nM each time.
As for “CDATCQFRKAIDDCQKQAHHSNVPGSVFKACMLQKKKEFKAG-NH2 (disulfide 1-5, 14-31) [compound 103]”, the IC50 against human PAC1 receptor fell in the range of 1 to 100 nM; at rat PAC1 receptor it was 0.01 to 1 nM.
For “CDATCQFRKAIDDCQKQAHHSNVPGSVFKACMVQKKKEFKAG-NH2 (disulfide 1-5, 14-31) [compound 102]”, in that order: 1 to 100 nM and 0.01 to 1 nM.
The corresponding values for “CDATCQFRKAIDDCQKQAHHSNVPGSVFKACVKQKKKEFKAG-NH2 (disulfide 1-5, 14-31) [compound 142]” are 1 to 100 nM and 1 to 100 nM.
As for “CDATCQFRKAIDDCQKQAHHSNVPGSVFKACVLQKKKEFKAG-NH2 (disulfide 1-5, 14-31) [compound 93]”, the IC50 at human PAC1 receptor and against rat PAC1 receptor was 1 to 100 nM throughout.
